From patent publication US10342795B2, “Substituted 4,5,6,7-tetrahydro-pyrazolo[1,5-a]pyrimidine derivatives and 2,3-dihydro-1H-imidazo[1,2-b]pyrazole derivatives as ROS1 inhibitors” (Janssen Pharmaceutica NV, priority 2014, dated 2019)

How the values were obtained:
[1] = system: Ba/F3 cells containing Ros1 wild-type protein + IL-3; assay: Ba/F3-Ros1 cell proliferation counter-screen, wild-type Ros1 in the presence of murine IL-3; assay type: cell-based; conditions: Mus musculus, BaF3, 24 h; -log IC50 (M); wild-type Ros1, 10 ng/ml murine IL-3 (counter-screen); read-out: BaF3-ROS1 + IL3 pIC50 (converted)
Procedure: (§1) This assay was carried out with Ba/F3 cells containing three different versions of Ros1: the wild-type protein, protein with a mutation at the gatekeeper residue (L2026M), and protein with a mutation identified in a tumor from a patient that became resistant to crizotinib (Xalkori®) treatment (G2032R). Compounds were solubilized in 100% DMSO (dimethyl sulfoxide) and sprayed into polystyrene, tissue culture treated 384-well plates. A 50 μl volume of cell culture medium (phenol red free RPMI-1640, 10% FBS (fetal bovine serum), 2 mM L-Glutamine) containing 20000 Ba/F3-Ros1 cells was added to each well and the plates were placed in an incubator at 37° C. and 5% CO2. After 24 hours, 10 μl of Alamar Blue solution (0.5 mM K3Fe(CN)6, 0.5 mM K4Fe(CN)6, 0.15 mM Resazurin and 100 mM Phosphate Buffer) was added to the wells, incubated for 4 hours at 37° C. and 5% CO2 before RFU's (Relative Fluorescence Units) (ex. 540 nm., em. 590 nm.) were measured in a fluorescence plate reader.
As a counter-screen the same experiment was performed for the wild-type protein in the presence of 10 ng/ml murine IL-3.

[2] = system: Ba/F3-Ros1 G2032R tumors; assay: Efficacy study in mice bearing Ba/F3-Ros1 G2032R tumors; assay type: in vivo, NMRI nude mice; conditions: oral gavage, 10 days, 20% cyclodextrin, change in final relative tumor volumes
Procedure: Approximately 2×10^6 Ba/F3 cells containing G2032R mutant Ros1 were inoculated into the inguinal region of NMRI nude mice. When the resulting tumors reached a size of 250 to 350 mm^3, mice were randomly assigned to the different treatment groups (8 to 12 mice per group). Compounds formulated in 20% cyclodextrin were administered to the mice by oral gavage at various doses for 10-days once (QD) or twice (BID) a day (see table below for administration frequency used in the study). Tumor sizes were determined by caliper measurement on day 1 prior to treatment and then twice weekly for the duration of the study using the commonly following formula: tumor volume (mm^3)=(a×b^2/2); where ‘a’ represents the length, and ‘b’ the width of the tumor. Treatment/control (T/C) ratios were calculated at the end of the study based on the change in final relative tumor volumes.

[3] = system: HCC78 non-small cell lung cancer cells; assay: HCC78 cell proliferation assay; assay type: cell-based; conditions: Homo sapiens, HCC78, 96 h; -log EC50 (M); 4 days, MTT; read-out: HCC-78 PROL pEC50 (converted)
Procedure: Approximately 1000 HCC78 non-small cell lung cancer cells in 180 μl of cell culture medium (RPMI-1640, 10% FBS, 2 mM L-Glutamine, 10 mM Hepes, 1 mM sodium pyruvate, 4.5 g/L glucose, 1.5 g/L sodium bicarbonate, 25 μg/ml Gentamycin) were seeded in each well of a 96-well polystyrene, tissue-culture treated plate and incubated at 37° C. and 5% CO2. After 24 hours, compounds were diluted in cell culture medium from which 20 μl was added to the wells containing cells and incubated for 4 days at 37° C. and 5% CO2. A 5 mg/ml solution of the tetrazolium dye MTT was prepared in PBS (phosphate-buffered saline) and 25 μl was added to each well. After 2 hours the medium was removed and replaced by 125 μL of 4/1 DMSO/glycine buffer (0.1M glycine, 0.1M NaCl, pH 10.5) before absorbance was determined at 538 nm.

[4] = target: Ba/F3 cells containing Ros1 G2032R (Homo sapiens, UniProt P08922, G2032R, cells depend on it, form not given); assay: Ba/F3-Ros1 cell proliferation assay, G2032R mutant; assay type: cell-based, murine; conditions: -log IC50 (M), no IL-3
Procedure: as §1

[5] = target: Ba/F3 cells containing Ros1 L2026M (Homo sapiens, UniProt P08922, L2026M, cells depend on it, form not given); assay: Ba/F3-Ros1 cell proliferation assay, L2026M gatekeeper mutant; assay type: cell-based, murine; conditions: -log IC50 (M), no IL-3
Procedure: as §1

[6] = target: Ba/F3 cells containing Ros1 wild-type protein (Homo sapiens, UniProt P08922, cells depend on it, form not given); assay: Ba/F3-Ros1 cell proliferation assay, wild-type Ros1, without IL-3; assay type: cell-based, murine; conditions: -log IC50 (M); wild-type Ros1, no IL-3, 24 h, Alamar Blue
Procedure: as §1

[7] = target: T1, Ros1 enzyme (Homo sapiens, UniProt P08922); assay: Ros1 enzymatic assay; assay type: biochemical; conditions: -log IC50 (M); 20 μM ATP, 120 min at room temperature; read-out: ROS1 pIC50 (converted)
T1 construct: 0.5 μg/ml Ros1 enzyme
Procedure: Compounds were spotted onto white 384-well Proxiplate plus plates (Perkin Elmer) to which 5 μl of enzyme mix (0.5 μg/ml Ros1 enzyme, 50 mM Tris-HCl pH7.5, 1 mM EGTA, 10 mM MgCl2, 0.01% Tween-20) and 5 μl of substrate mix (6 μg/ml IRS-Tide [American Peptide Company], 20 μM ATP, 13.33 μCi/ml ATP (adenosine 5′-triphosphate) P^33, 50 mM Tris-HCl pH7.5, 1 mM EGTA (ethylene glycol-bis(2-aminoethylether)-N,N,N′,N′-tetraacetic acid), 10 mM MgCl2, 0.01% Tween-20) were added. After incubation for 120 minutes at room temperature, 10 μl of stop reaction buffer (5 mM EDTA, 50 μM ATP, 0.1% BSA (bovine serum albumin), 0.1% Triton X-100, 50 mM Tris-HCl pH7.5, 1 mM EGTA, 10 mM MgCl2, 0.01% Tween-20) containing 2 mg/ml streptavidin coupled polystyrene imaging beads (Amersham Biosciences) was added and incubated for 15 minutes at room temperature. Plates were centrifuged for 3 minutes at 1500 rpm and signals detected in a LEADseeker imaging system (GE).

T1 sequence (P08922 28-2347): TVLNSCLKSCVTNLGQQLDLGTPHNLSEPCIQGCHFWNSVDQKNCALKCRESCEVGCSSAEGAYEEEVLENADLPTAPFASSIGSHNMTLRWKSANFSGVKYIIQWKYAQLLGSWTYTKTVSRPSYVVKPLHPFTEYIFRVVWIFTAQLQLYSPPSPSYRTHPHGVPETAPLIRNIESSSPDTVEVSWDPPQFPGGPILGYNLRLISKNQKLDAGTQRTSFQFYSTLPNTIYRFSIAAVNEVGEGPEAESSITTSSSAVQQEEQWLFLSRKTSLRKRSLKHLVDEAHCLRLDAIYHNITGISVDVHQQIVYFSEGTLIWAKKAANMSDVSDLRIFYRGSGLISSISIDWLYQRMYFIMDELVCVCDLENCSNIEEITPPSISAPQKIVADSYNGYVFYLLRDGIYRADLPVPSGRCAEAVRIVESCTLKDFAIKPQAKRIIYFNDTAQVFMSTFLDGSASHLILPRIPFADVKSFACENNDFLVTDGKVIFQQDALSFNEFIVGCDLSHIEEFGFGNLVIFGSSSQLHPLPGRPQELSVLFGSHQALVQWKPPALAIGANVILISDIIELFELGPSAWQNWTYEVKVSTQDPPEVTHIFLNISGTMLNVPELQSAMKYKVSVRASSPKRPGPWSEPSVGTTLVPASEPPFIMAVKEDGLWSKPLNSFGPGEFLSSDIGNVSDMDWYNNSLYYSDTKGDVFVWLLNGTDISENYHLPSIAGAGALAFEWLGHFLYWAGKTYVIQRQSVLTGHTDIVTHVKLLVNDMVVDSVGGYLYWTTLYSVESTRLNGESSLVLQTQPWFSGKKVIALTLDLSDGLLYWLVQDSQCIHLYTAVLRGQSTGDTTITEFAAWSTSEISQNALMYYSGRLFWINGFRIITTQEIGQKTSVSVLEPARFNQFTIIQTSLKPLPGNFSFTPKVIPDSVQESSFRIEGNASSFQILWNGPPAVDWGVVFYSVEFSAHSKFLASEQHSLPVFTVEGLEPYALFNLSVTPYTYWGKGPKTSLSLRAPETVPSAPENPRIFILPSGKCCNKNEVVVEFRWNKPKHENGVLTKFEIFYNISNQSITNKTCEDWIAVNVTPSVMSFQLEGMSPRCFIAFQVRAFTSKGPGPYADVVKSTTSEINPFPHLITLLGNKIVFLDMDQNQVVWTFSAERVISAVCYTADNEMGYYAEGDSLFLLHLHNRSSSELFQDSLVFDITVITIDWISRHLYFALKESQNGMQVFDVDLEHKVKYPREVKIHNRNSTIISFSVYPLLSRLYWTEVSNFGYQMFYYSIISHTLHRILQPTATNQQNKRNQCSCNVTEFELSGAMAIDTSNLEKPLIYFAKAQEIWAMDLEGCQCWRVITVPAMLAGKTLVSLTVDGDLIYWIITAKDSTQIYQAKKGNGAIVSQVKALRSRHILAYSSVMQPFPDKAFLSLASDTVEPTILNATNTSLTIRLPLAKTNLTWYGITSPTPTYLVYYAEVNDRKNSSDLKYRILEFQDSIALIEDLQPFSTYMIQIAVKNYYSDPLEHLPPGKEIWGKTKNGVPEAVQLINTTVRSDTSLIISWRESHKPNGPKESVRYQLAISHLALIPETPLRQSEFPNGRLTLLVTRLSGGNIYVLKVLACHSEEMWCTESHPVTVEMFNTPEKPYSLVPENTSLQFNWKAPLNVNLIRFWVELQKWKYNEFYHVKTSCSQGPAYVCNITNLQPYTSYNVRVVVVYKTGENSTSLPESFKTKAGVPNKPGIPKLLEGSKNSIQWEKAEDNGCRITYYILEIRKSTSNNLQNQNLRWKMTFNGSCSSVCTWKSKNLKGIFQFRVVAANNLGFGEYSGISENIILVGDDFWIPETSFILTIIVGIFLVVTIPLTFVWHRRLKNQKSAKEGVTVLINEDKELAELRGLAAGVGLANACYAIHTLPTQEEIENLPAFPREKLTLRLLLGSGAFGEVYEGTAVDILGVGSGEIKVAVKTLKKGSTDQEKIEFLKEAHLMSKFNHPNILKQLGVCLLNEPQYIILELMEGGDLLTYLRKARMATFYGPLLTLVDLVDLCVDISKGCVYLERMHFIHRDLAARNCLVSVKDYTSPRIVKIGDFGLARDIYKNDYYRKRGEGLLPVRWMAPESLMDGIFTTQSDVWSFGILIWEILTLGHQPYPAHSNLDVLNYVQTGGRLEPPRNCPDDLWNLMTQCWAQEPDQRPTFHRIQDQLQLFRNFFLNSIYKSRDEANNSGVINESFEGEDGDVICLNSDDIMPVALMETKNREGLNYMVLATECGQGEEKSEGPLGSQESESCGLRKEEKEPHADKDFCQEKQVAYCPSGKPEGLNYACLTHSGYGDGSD
Ba/F3 cells containing Ros1 wild-type protein, sequence (P08922 whole entry, change not shown): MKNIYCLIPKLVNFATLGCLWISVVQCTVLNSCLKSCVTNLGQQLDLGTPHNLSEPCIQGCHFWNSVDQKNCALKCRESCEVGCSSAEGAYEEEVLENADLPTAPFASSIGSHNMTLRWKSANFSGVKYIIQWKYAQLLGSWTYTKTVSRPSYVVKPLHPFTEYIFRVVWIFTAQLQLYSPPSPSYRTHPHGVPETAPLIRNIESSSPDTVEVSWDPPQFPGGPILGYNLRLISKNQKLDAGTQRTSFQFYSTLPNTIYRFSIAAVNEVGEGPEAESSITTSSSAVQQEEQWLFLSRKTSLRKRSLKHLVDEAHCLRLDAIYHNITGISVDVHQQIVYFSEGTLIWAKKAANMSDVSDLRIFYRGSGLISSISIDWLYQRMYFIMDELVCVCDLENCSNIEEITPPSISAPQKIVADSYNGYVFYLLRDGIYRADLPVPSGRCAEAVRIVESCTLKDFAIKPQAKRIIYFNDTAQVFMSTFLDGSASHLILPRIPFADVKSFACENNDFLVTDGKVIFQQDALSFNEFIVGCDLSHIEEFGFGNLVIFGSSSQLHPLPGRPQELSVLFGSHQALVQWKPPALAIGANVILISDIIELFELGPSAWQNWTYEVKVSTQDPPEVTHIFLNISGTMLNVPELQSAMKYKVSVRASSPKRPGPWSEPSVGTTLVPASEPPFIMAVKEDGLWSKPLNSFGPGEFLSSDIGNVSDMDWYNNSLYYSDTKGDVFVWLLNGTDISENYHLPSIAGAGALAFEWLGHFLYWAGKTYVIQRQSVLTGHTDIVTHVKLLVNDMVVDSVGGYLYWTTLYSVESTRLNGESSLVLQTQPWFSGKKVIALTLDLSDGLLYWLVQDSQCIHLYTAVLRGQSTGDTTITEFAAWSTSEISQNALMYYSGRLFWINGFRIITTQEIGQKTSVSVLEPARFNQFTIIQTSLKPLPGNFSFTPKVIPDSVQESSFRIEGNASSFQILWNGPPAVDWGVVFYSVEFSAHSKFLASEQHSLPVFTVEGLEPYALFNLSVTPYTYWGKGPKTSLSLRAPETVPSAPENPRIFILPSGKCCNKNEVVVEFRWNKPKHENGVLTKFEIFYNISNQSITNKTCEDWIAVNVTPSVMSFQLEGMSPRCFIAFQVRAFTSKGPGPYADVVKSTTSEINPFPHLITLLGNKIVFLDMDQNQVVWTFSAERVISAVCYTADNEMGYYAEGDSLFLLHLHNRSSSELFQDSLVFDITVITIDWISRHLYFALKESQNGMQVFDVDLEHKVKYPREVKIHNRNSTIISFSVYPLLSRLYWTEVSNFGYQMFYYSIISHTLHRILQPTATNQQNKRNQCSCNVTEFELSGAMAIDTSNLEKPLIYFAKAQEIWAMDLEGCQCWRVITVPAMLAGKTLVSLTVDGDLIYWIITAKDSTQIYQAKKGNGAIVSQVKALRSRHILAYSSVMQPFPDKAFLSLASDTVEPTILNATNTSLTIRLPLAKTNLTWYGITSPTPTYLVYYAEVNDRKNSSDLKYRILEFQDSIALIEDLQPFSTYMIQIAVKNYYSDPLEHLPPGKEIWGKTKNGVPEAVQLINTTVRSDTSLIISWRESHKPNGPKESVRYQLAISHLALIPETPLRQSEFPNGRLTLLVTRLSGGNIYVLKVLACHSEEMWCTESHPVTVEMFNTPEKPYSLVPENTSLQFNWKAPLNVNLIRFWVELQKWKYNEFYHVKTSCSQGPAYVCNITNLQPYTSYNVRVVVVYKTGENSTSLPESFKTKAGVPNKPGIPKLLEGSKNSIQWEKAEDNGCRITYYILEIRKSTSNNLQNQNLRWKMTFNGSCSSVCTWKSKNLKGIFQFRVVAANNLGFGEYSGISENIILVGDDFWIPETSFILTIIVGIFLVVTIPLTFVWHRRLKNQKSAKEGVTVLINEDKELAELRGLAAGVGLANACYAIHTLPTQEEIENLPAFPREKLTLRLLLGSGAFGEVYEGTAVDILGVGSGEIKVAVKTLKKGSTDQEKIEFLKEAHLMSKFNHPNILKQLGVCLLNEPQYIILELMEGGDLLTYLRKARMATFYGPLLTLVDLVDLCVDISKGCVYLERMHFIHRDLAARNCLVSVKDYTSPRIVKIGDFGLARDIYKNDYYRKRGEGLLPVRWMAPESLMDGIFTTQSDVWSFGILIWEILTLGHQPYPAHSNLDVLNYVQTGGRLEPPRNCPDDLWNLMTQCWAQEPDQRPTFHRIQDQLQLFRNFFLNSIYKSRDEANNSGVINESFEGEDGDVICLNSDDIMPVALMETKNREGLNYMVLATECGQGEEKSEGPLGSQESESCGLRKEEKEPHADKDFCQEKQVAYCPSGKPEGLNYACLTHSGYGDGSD
Ba/F3 cells containing Ros1 L2026M, sequence (P08922 whole entry L2026M, form open): as the sequence (P08922 whole entry, change not shown) above, with L2026M counted along it
Ba/F3 cells containing Ros1 G2032R, sequence (P08922 whole entry G2032R, form open): as the sequence (P08922 whole entry, change not shown) above, with G2032R counted along it

CC(C)c1ccc(COc2ccc(-c3c(-c4ccncc4)nn4c3NCC4)cc2)cc1 [Co. 1]
CC50 [1]: 5.01e-06 M
T/C (%) ([2]; 12.5 mg/kg BID): 64%
T/C (%) ([2]; 25 mg/kg BID): 16%
T/C (%) ([2]; 50 mg/kg BID): −18%
EC50 [3]: 7.94e-07 M
Ba/3 Ros1 G2032R (-IL-3) pIC50 [4]: 6.4
Ba/F3 Ros1 L2026M (-IL-3) pIC50 [5]: ~6.7
BaF3-ROS1 − IL3 pIC50 [6]: 7.0
IC50 [7]: 1.26e-07 M
melting point: 156 °C
